Experiment [1] concerns HSkM. Description: Functional testing in Cachexia Assay (HSkM functional assay). Format: cell-based, human. Conditions: FIG. 25. From the text: This implies that the modeled Ab epitope is likely a functional focused target for Ab therapy and that this is the basis for further small molecule therapeutic development for cancer cachexia and other RAGE mediated diseases.
Experiment [2] addresses T1, RAGE (Homo sapiens, UniProt Q15109). Conditions: cited from earlier work.
The test system of experiment [3] is A-beta brain entry. The note with it: in vivo; cited from earlier work.
Experiment [4] has as its system rat model of ICH. Conditions: cited from earlier work.
Experiment [5] concerns the target V domain of RAGE (Homo sapiens, UniProt Q15109). Conditions: cited from earlier work.
The test system of experiment [6] is RAGE-expressing cells. The note with it: RAGE-expressing cells in vitro and mouse brain in vivo; cited from earlier work.
In experiment [7] the test system is Primary human myoblast differentiated into terminal myotubes. The experiment in a line: Cachexia induction by recombinant S100/HMGB1 ligands, myosin HC in-cell Western. Conditions: recombinant ligand applied each day for 3 days. Format: cell-based. How it is done: FIGS. 1-3 illustrate the effect of various proteins of the S100 family, as well as HMGB1, as cachexia inducers when compared with cachexia-inducing media. Primary human myoblast were plated and differentiated into terminal myotubes as previously described. Recombinant ligands were prepared at the same dose curve in Hanks Balance Salt Solution (buffer) and applied 1:2 v:v to fresh maintenance media each day for 3 days. Cells were assessed for myosin HC content by in-cell Western staining as previously described.

Experiment [8] deals with T1, RAGE. Description: Direct immunoprecipitation with RAGE. Format: binding. The note with it: direct immunoprecipitation experiments.

“Also recorded” adds a separate entry of the source.

T1 sequence (Q15109 23-404): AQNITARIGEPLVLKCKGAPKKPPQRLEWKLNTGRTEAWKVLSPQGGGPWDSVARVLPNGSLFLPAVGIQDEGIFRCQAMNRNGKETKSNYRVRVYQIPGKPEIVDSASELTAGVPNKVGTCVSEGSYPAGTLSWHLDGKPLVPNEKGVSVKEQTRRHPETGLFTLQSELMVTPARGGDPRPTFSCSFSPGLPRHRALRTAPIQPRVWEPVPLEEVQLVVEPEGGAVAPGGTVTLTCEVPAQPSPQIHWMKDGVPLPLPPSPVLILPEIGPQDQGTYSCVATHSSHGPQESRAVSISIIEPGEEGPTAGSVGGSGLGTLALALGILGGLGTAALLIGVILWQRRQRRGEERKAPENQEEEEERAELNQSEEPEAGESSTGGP
Sequence of V domain of RAGE (Q15109 23-116 limits assumed): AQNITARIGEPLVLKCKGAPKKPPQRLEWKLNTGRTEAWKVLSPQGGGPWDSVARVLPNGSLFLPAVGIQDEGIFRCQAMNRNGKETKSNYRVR

For `CCCCCC(=Cc1ccccc1)CN(CCc1c[nH]c2ccccc12)C(=O)c1ccc(Cl)c([N+](=O)[O-])c1` [FPS3], the “inhibition of cachexia phenotype” value in experiment [1] is given as “inhibits cachexia phenotype”.

In the case of `CCN(CC)CCOc1cccc(Nc2nc(-c3ccc(Cl)cc3)cc(-c3ccc(Cl)cc3)n2)c1` [Compound 59, 4,6-bis(4-chlorophenyl)-N-(3-(2-(diethylamino)ethoxy)phenyl)-pyrimidin-2-amine], in experiment [2], the affinity to ligand entry is “highest affinity to ligand” and the “inhibition (not further specified)” value is “most significant inhibition”. Moreover, the “A-beta brain entry inhibition” value in experiment [3] is listed as “most potent A-beta brain entry inhibition”. Regarding `CCN(CC)CCOc1ccccc1Nc1nc(-c2ccc(Cl)cc2)cc(-c2ccc(Cl)cc2)n1` [Compound 60, 4,6-bis(4-chlorophenyl)-N-(2-(2-(diethylamino)ethoxy)phenyl)-pyrimidin-2-amine], in experiment [2], the affinity to ligand result is “highest affinity to ligand” and the in vitro activity entry is reported as “best in vitro activity”. For the molecule `CCN(CC)CCOc1cccc(Nc2nc(C)cc(-c3ccc(OCCC4CCCCC4)cc3)n2)c1` [Compound 53, 4-(4-(2-cyclohexylethoxy)phenyl)-N-(3-(2-(diethylamino)ethoxy)-phenyl)-6-methylpyrimidin-2-amine], the affinity to ligand entry in experiment [2] is listed as “highest affinity to ligand”. Turning to `O=C(c1ccc(Cl)cc1)N(Cc1ccccc1)C1CCCCC1` [FPS-ZM1], the “BBB damage, brain edema, motor dysfunction, nerve fiber injury” value in experiment [4] (rat ICH model, FPS-ZM1 administration) was “significant improvements of BBB damage, brain edema, motor dysfunction, and nerve fiber injury”. For the same molecule, the “FeCl2-induced RAGE and nuclear factor κB p65 upregulation” value in experiment [4] (rat, in vivo) was “reversed FeCl2-induced RAGE and nuclear factor κB p65 upregulation”. Further, the “blocking of Aβ binding to the V domain of RAGE” value in experiment [5] is “blocked A13 binding to the V domain of RAGE”. The “inhibition of Aβ40- and Aβ42-induced cellular stress” value in experiment [6] is “inhibited A1340- and A1342-induced cellular stress”.

Take “S100A8/A9: recombinant S100A8/A9 (Calprotectin)”: the “induction of the cachectic phenotype (myosin HC content)” value (“induction of the cachectic phenotype” for short) in experiment [7] is listed as “capable of inducing the cachexia phenotype”. For the same molecule, the “direct binding to RAGE” value in experiment [8] is reported as “directly bind to RAGE”.

B1: A9: recombinant RAGE ligand of the S100 family (protein, UniProt P06702 1-114, looked up)
Protein S100-A9: MTCKMSQLERNIETIINTFHQYSVKLGHPDTLNQGEFKELVRKDLQNFLKKENKNEKVIEHIMEDLDTNADKQLSFEEFIMLMARLTWASHEKMHEGDEGPGHHHKPGLGEGTP
For B1, the “induction of the cachectic phenotype” value in experiment [7] is “inducers of the cachectic phenotype”.

B2: A8: recombinant RAGE ligand of the S100 family (protein, UniProt P05109 1-93, looked up)
Protein S100-A8: MLTELEKALNSIIDVYHKYSLIKGNFHAVYRDDLKKLLETECPQYIRKKGADVWFKELDINTDGAVNFQEFLILVIKMGVAAHKKSHEESHKE
For the molecule B2, the “induction of the cachectic phenotype” value in experiment [7] is “inducers of the cachectic phenotype”.

B3: S100B: recombinant S100 family RAGE ligand (protein, UniProt P04271 2-92, looked up)
Protein S100-B: SELEKAMVALIDVFHQYSGREGDKHKLKKSELKELINNELSHFLEEIKEQEVVDKVMETLDNDGDGECDFQEFMAFVAMVTTACHEFFEHE
As to B3, the “induction of the cachectic phenotype” value in experiment [7] is listed as “little or no activity in inducing cachexia; also recorded: do not induce precachexia and/or cachexia”.

B4: HMGB1: high mobility group box 1, RAGE ligand (protein, UniProt P09429 1-215, looked up)
High mobility group protein B1: MGKGDPKKPRGKMSSYAFFVQTCREEHKKKHPDASVNFSEFSKKCSERWKTMSAKEKGKFEDMAKADKARYEREMKTYIPPKGETKKKFKDPNAPKRPPSAFFLFCSEYRPKIKGEHPGLSIGDVAKKLGEMWNNTAADDKQPYEKKAAKLKEKYEKDIAAYRAKGKPDAAKKGVVKAEKSKKKKEEEEDEEDEEDEEEEEDEEDEDEEEDDDDE
On to B4, for which, in experiment [7], the “induction of the cachectic phenotype” value is “do not induce precachexia and/or cachexia; also recorded: not cachexogenic in muscle; also recorded: cannot; also recorded: does not induce the cachectic phenotype”.

B5: S100 A7: recombinant RAGE ligand of the S100 family (protein, UniProt P31151 2-101, looked up)
Protein S100-A7: SNTQAERSIIGMIDMFHKYTRRDDKIEKPSLLTMMKENFPNFLSACDKKGTNYLADVFEKKDKNEDKKIDFSEFLSLLGDIATDYHKQSHGAAPCSGGSQ
For B5, the “induction of the cachectic phenotype” value in experiment [7] is given as “inducers of the cachectic phenotype”; in experiment [7] (listed as S100A7), “capable of inducing the cachexia phenotype”. Also, in experiment [8], the “direct binding to RAGE” value is given as “directly bind to RAGE”.

These data come from patent publication US20180355033A1, “ANTIBODIES, COMPOUNDS AND SCREENS FOR IDENTIFYING AND TREATING CACHEXIA OR PRE-CACHEXIA” (Dana-Farber Cancer Institute, Inc., priority 2015, published 2018).
